From patent US9340501B2, “Marinopyrrole derivatives as anticancer agents” (H. LEE MOFFITT CANCER CENTER AND RESEARCH INSTITUTE, INC., priority 2012, dated 2016)
Values joined by “and” are separate entries in the source; they are usually repeats but may differ in a detail not shown here. Equal entries are not always repeated. Where two headings read alike, the source gives them in different places.

Columns and labels:
MDA-MB-468 cells = assay: In vitro anticancer assay against MDA-MB-468 cells; type: cell-based; conditions: for inhibition at 0.5 µM: MDA-MB-468, 0.5 μM; for inhibition at 0.5 µM / inhibition at 50 µM / inhibition at 5 µM: read-out: % Inhibition at 0.5, 5, 50 μM; for inhibition at 50 µM: MDA-MB-468, 50 μM; for inhibition at 5 µM: MDA-MB-468, 5 μM
Description: The anticancer activities of the novel asymmetrical marinopyrroles described herein were evaluated against MDA-MB-468 cells (Table 1). IC50 values are reported in μM.

Bcl-2 = Bcl-2 (Homo sapiens, UniProt P10415); conditions: Tse et al. 2008; cited from earlier work
Bcl-2, sequence (P10415 whole entry, species assumed): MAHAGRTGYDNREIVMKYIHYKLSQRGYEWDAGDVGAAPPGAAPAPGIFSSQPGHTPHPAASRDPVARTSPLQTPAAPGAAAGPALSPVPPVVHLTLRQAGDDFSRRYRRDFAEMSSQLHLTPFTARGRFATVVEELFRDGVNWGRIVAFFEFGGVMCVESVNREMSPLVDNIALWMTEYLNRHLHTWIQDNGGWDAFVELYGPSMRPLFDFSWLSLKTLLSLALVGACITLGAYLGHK

Bcl-XL = Bcl-XL (Homo sapiens, UniProt Q07817); conditions: Tse et al. 2008; cited from earlier work
Bcl-XL, sequence (Q07817 whole entry, species assumed): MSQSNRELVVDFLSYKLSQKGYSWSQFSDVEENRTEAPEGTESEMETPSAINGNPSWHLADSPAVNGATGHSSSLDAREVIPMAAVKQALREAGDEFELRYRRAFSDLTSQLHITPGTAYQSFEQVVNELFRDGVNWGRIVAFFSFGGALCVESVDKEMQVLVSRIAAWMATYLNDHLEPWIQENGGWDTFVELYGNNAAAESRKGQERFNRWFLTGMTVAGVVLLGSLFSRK

Mcl-1 = Mcl-1 (Homo sapiens, UniProt Q07820); conditions: Tse et al. 2008; cited from earlier work
Mcl-1, sequence (Q07820 whole entry, species assumed): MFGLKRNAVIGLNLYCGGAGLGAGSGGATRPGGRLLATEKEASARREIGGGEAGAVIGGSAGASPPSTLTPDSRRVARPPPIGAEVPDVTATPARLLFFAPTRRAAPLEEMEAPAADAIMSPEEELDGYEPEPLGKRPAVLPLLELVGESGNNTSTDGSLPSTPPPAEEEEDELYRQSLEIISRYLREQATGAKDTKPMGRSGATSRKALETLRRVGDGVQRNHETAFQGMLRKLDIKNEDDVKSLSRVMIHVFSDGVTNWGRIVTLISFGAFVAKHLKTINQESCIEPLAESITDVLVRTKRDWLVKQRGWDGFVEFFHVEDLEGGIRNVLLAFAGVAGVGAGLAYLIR

[1] = mean of the determinations, read-out: Mean IC50
[2] = single determinations, read-out: IC50
[3] = Homo sapiens, MDA-MB-468, estimated from % inhibition at 0.5, 5, 50 μM, read-out: Est. IC50
[4] = Homo sapiens, MDA-MB-468, mean of the determinations, read-out: Mean IC50
[5] = Homo sapiens, MDA-MB-468, single determinations, read-out: IC50
[6] = estimated from % inhibition at 0.5, 5, 50 μM, read-out: Est. IC50

O=C(c1ccccc1O)c1[nH]c(Cl)c(Cl)c1-n1c(C(=O)c2ccccc2O)cc(Cl)c1Cl (racemic) [Racemic Marinopyrrole A, reference compound]
IC50 (MDA-MB-468 cells; [1]): 2030 ± 180 nM | IC50 (MDA-MB-468 cells; [2]): 2190 nM and 1840 nM and 2070 nM

O=C(c1ccccc1O)c1[nH]c(Cl)c(Cl)c1-n1c(C(=O)c2ccccc2O)cc(Cl)c1Cl [(+)-Marinopyrrole A, reference compound]
IC50 (MDA-MB-468 cells; [1]): 1880 nM | IC50 (MDA-MB-468 cells; [2]): 2140 nM and 1640 nM

O=C(c1ccccc1O)c1[nH]c(Cl)c(Cl)c1-n1c(C(=O)c2ccccc2O)cc(Cl)c1Cl [(−)-Marinopyrrole A, reference compound]
IC50 (MDA-MB-468 cells; [1]): 3170 nM | IC50 (MDA-MB-468 cells; [2]): 3470 nM and 2870 nM

CC1(C)CCC(c2ccc(Cl)cc2)=C(CN2CCN(c3ccc(C(=O)NS(=O)(=O)c4ccc(N[C@H](CCN5CCOCC5)CSc5ccccc5)c(S(=O)(=O)C(F)(F)F)c4)cc3)CC2)C1 [ABT-263]
concentration that inhibits Bcl-2 (Bcl-2): subnanomolar concentrations | concentration that inhibits Bcl-XL (Bcl-XL): subnanomolar concentrations | activity on Mcl-1 (Mcl-1): only weakly target Mcl-1

CN(C)CC[C@H](CSc1ccccc1)Nc1ccc(S(=O)(=O)NC(=O)c2ccc(N3CCN(Cc4ccccc4-c4ccc(Cl)cc4)CC3)cc2)cc1[N+](=O)[O-] [ABT-737]
concentration that inhibits Bcl-2 (Bcl-2): subnanomolar concentrations | concentration that inhibits Bcl-XL (Bcl-XL): subnanomolar concentrations | activity on Mcl-1 (Mcl-1): only weakly target Mcl-1

O=C(c1ccccc1O)c1[nH]c(Cl)c(Cl)c1-n1c(C(=O)c2cc(Cl)ccc2O)cc(Cl)c1Cl [Compound 1, (5-Chloro-2-hydroxyphenyl)(4,4′,5,5′-tetrachloro-2′-(2-hydroxybenzoyl)-1′H-1,3′-bipyrrol-2-yl)methanone]
inhibition at 0.5 µM (MDA-MB-468 cells; Homo sapiens): 1.6% | inhibition at 50 µM (MDA-MB-468 cells; Homo sapiens): 98.3% | IC50 (MDA-MB-468 cells; [3]): 9000 nM

O=C(c1ccccc1O)c1[nH]c(Cl)c(Cl)c1-n1c(C(=O)c2ccc(Cl)cc2O)cc(Cl)c1Cl [Compound 2, (4-Chloro-2-hydroxyphenyl)(4,4′,5,5′-tetrachloro-2′-(2-hydroxybenzoyl)-1′H-1,3′-bipyrrol-2-yl)methanone]
IC50 (MDA-MB-468 cells; [4]): 1450 nM | IC50 (MDA-MB-468 cells; [5]): 1720 nM | IC50 (MDA-MB-468 cells; [2]): 1170 nM

O=C(c1ccccc1O)c1[nH]c(Cl)c(Cl)c1-n1c(C(=O)c2cccc(Cl)c2O)cc(Cl)c1Cl [Compound 3, (3-Chloro-2-hydroxyphenyl)(4,4′,5,5′-tetrachloro-2′-(2-hydroxybenzoyl)-1′H-1,3′-bipyrrol-2-yl)methanone]
inhibition at 0.5 µM (MDA-MB-468 cells; Homo sapiens): 7% | inhibition at 5 µM (MDA-MB-468 cells; Homo sapiens): 83.4% | inhibition at 50 µM (MDA-MB-468 cells; Homo sapiens): 100% | IC50 (MDA-MB-468 cells; [3]): 1000 nM | IC50 (MDA-MB-468 cells; [4]): 2170 nM | IC50 (MDA-MB-468 cells; [5]): 1950 nM | IC50 (MDA-MB-468 cells; [2]): 2390 nM

COc1ccccc1C(=O)c1[nH]c(Cl)c(Cl)c1-n1c(C(=O)c2ccc(Cl)cc2OC)cc(Cl)c1Cl [Compound 5, (4-Chloro-2-methoxyphenyl)(4,4′,5,5′-tetrachloro-2′-(2-methoxybenzoyl)-1′H-[1,3′-bipyrrole]-2-yl)methanone]
IC50 (MDA-MB-468 cells; [4]): 13200 nM | IC50 (MDA-MB-468 cells; [5]): 14000 nM | IC50 (MDA-MB-468 cells; [2]): 12400 nM

COc1ccccc1C(=O)c1[nH]c(Cl)c(Cl)c1-n1c(C(=O)c2cc(F)ccc2OC)cc(Cl)c1Cl [Compound 7]
IC50 (MDA-MB-468 cells; [4]): 11000 nM | IC50 (MDA-MB-468 cells; [5]): 11700 nM | IC50 (MDA-MB-468 cells; [2]): 10200 nM

O=C(c1ccccc1O)c1[nH]c(Cl)c(Cl)c1-n1c(C(=O)c2cc(F)ccc2O)cc(Cl)c1Cl [Compound 8]
IC50 (MDA-MB-468 cells; [4]): 2140 nM | IC50 (MDA-MB-468 cells; [5]): 2230 nM | IC50 (MDA-MB-468 cells; [2]): 2050 nM

COc1cc(OC)c(C(=O)c2cc(Cl)c(Cl)n2-c2c(C(=O)c3ccccc3OC)[nH]c(Cl)c2Cl)cc1Cl [Compound 9]
IC50 (MDA-MB-468 cells; [5]): 20400 nM

O=C(c1ccccc1O)c1[nH]c(Cl)c(Cl)c1-n1c(C(=O)c2cc3ccccc3c(Cl)c2O)cc(Cl)c1Cl [Compound 10]
IC50 (MDA-MB-468 cells; [4]): 1700 nM | IC50 (MDA-MB-468 cells; [5]): 1940 nM | IC50 (MDA-MB-468 cells; [2]): 1460 nM

COc1ccccc1C(=O)c1[nH]c(Cl)c(Cl)c1-n1c(C(=O)c2cc(Cl)c3ccccc3c2O)cc(Cl)c1Cl [Compound 11]
IC50 (MDA-MB-468 cells; [5]): 10700 nM

O=C(c1ccccc1O)c1[nH]c(Cl)c(Cl)c1-n1c(C(=O)c2cc(Cl)c3ccccc3c2O)cc(Cl)c1Cl [Compound 12]
IC50 (MDA-MB-468 cells; [4]): 1890 nM | IC50 (MDA-MB-468 cells; [5]): 1900 nM

COc1ccccc1C(=O)c1[nH]c(Cl)c(Cl)c1-n1c(C(=O)c2cccc(Cl)c2O)cc(Cl)c1Cl [Compound 21]
inhibition at 0.5 µM (MDA-MB-468 cells; Homo sapiens): -0.4% | inhibition at 50 µM (MDA-MB-468 cells; Homo sapiens): 99.1% | IC50 (MDA-MB-468 cells; [3]): 25000 nM

COc1ccccc1C(=O)c1[nH]c(Cl)c(Cl)c1-n1c(C(=O)c2cc(F)ccc2O)cc(Cl)c1Cl [Compound 25]
inhibition at 0.5 µM (MDA-MB-468 cells; Homo sapiens): 2.4% | inhibition at 50 µM (MDA-MB-468 cells; Homo sapiens): 95.7% | IC50 (MDA-MB-468 cells; [3]): 28000 nM

O=C(c1ccccc1O)c1[nH]c(Cl)c(Cl)c1-n1c(C(=O)c2c([O-])cccc2F)cc(Cl)c1Cl.[Na+] [Compound 27]
% Inhibition at 0.5, 5, 50 μM (MDA-MB-468 cells; 0.5 μM): 3.9% | inhibition at 50 µM (MDA-MB-468 cells; Homo sapiens): 96.3% | IC50 (MDA-MB-468 cells; [6]): 25000 nM

O=C(c1ccccc1O)c1[nH]c(Cl)c(Cl)c1-n1c(C(=O)c2ccc(F)cc2O)cc(Cl)c1Cl [Compound 30]
inhibition at 0.5 µM (MDA-MB-468 cells; Homo sapiens): 10.8% | inhibition at 5 µM (MDA-MB-468 cells; Homo sapiens): 78.6% | inhibition at 50 µM (MDA-MB-468 cells; Homo sapiens): 94.7% | IC50 (MDA-MB-468 cells; [3]): 1000 nM | IC50 (MDA-MB-468 cells; [4]): 1040 nM | IC50 (MDA-MB-468 cells; [5]): 940 nM | IC50 (MDA-MB-468 cells; [2]): 1140 nM

O=C(c1ccccc1O)c1[nH]c(Cl)c(Cl)c1-n1c(C(=O)c2ccc(F)cc2[O-])cc(Cl)c1Cl.[Na+] [Compound 31]
% Inhibition at 0.5, 5, 50 μM (MDA-MB-468 cells; 0.5 μM): 5.6% | % Inhibition at 0.5, 5, 50 μM (MDA-MB-468 cells; 5 μM): 63.5% | % Inhibition at 0.5, 5, 50 μM (MDA-MB-468 cells; 50 μM): 99.4% | IC50 (MDA-MB-468 cells; [6]): 2000 nM | IC50 (MDA-MB-468 cells; [1]): 3150 nM | IC50 (MDA-MB-468 cells; [2]): 3970 nM and 2330 nM

O=C(c1ccccc1O)c1[nH]c(Cl)c(Cl)c1-n1c(C(=O)c2c(O)cccc2F)cc(Cl)c1Cl [Compound 32]
% Inhibition at 0.5, 5, 50 μM (MDA-MB-468 cells; 0.5 μM): 0% | % Inhibition at 0.5, 5, 50 μM (MDA-MB-468 cells; 50 μM): 87.7% | IC50 (MDA-MB-468 cells; [6]): 12000 nM

O=C(c1ccccc1O)c1[nH]c(Cl)c(Cl)c1-n1c(C(=O)c2cc(Br)ccc2O)cc(Cl)c1Cl [Compound 33]
inhibition at 0.5 µM (MDA-MB-468 cells; Homo sapiens): 10.8% | inhibition at 5 µM (MDA-MB-468 cells; Homo sapiens): 58.7% | inhibition at 50 µM (MDA-MB-468 cells; Homo sapiens): 99.3% | IC50 (MDA-MB-468 cells; [3]): 2000 nM | IC50 (MDA-MB-468 cells; [5]): 3870 nM

COc1ccc(F)cc1C(=O)c1cc(Cl)c(Cl)n1-c1c(C(=O)O)[nH]c(Cl)c1Cl [Compound 34]
IC50 (MDA-MB-468 cells; [5]): 33500 nM

COc1ccccc1C(=O)c1[nH]c(Cl)c(Cl)c1-n1c(C(=O)c2cccc3ccccc23)cc(Cl)c1Cl [Compound 35]
IC50 (MDA-MB-468 cells; [5]): 10500 nM

CCOC(=O)c1[nH]c(Cl)c(Cl)c1-n1c(C(=O)c2ccccc2O)cc(Cl)c1Cl [Compound 37]
IC50 (MDA-MB-468 cells; [5]): 15700 nM

CCOC(=O)c1cc(Cl)c(Cl)n1-c1c(C(=O)c2ccccc2O)[nH]c(Cl)c1Cl [Compound 38]
IC50 (MDA-MB-468 cells; [4]): 2090 nM | IC50 (MDA-MB-468 cells; [5]): 2730 nM | IC50 (MDA-MB-468 cells; [2]): 1440 nM

COc1ccc(C(=O)c2[nH]c(Cl)c(Cl)c2-n2c(C(=O)c3ccc(OC)cc3)cc(Cl)c2Cl)cc1 [Compound 39]
IC50 (MDA-MB-468 cells; [5]): 18300 nM
